One compound from patent US6913695B2, “Sanitization of chromatographic media” (Bayer HealthCare LLC, priority 2003, dated 2005) can be followed below.

In one data set the test system is porcine parvovirus (PPV). The data set can be described thus: Inactivation of PPV in solution by test solutions (TCID50 titration). Type of data set: cell-based.
Another data set deals with porcine parvovirus; PPV. The data set can be described thus: Porcine parvovirus clearance and sanitization across the benzamidine-SEPHAROSE column (TCID50 titration on MPK cells). Type of data set: cell-based.
The test system of data set [1] is bovine viral diarrhea virus (BVDV). The data set can be described thus: Column sanitization after viral clearance run, BVDV. The note with it: column treated with 7.2 M guanidine hydrochloride, pH 3.0, after a viral clearance run. Type of data set: cell-based. The protocol: Solutions tested included a variety of alcohols, detergents, and chaotropic agents including guanidine hydrochloride (Table 2). […] A series of experiments were performed to identify conditions under which 8 M guanidine hydrochloride would stay in solution. […] Additionally, when mixed with virus (1 part virus:9 parts acidic guanidine hydrochloride; final guanidine hydrochloride concentration=7.2 M) inactivation to the limit of detection occurred within 30 minutes at 4° C. Similar experiments were carried out treating the benzamidine-SEPHAROSE column with 7.2 M guanidine hydrochloride, pH 3.0, following a viral clearance evaluation run.

The next data set deals with PrP^Sc. The following applies: pH 3.

Counter-ions that a name gives are not always drawn.

On to `N=C(N)N` [guanidine hydrochloride], for which the “time to inactivation to the limit of detection” value with porcine parvovirus (PPV) (1 part virus:9 parts acidic guanidine hydrochloride, final concentration 7.2 M, 4° C.) is ≤ 30 min. For the same compound, the “inactivation of virus in solution” value in the data set with porcine parvovirus (PPV) (4 M guanidine hydrochloride, pH 3.0) is “effective viral inactivation”; in the data set with porcine parvovirus (PPV) (6.5 M guanidine hydrochloride, pH 4.0, 4° C.), “inactivation of virus”. Also, in the data set on porcine parvovirus (PPV) (8 M guanidine hydrochloride, room temperature, initial screen), the “killing of virus (PPV)” value is recorded as “effective at killing virus to the detection limit of the assay”. Moreover, the “inactivation of chromatographic column-associated virus (benzamidine-SEPHAROSE resin)” value in the data set with porcine parvovirus; PPV (7.2 M guanidine hydrochloride, pH 3.0) is given as “can be inactivated”. Besides, the “virus inactivation on the benzamidine-SEPHAROSE column” value in the data set on porcine parvovirus; PPV (PPV, column treated with 7.2 M guanidine hydrochloride, pH 3.0, after a viral clearance run) is listed as “inactivation to the limit of assay detection”; in data set [1], “inactivation to the limit of assay detection”. In addition, under “8 M guanidine acidified to pH 4.0 or 3.0, 4° C.”, the precipitation result is reported as “did not precipitate”. Moreover, the “precipitation at the lower temperature” value (8 M guanidine, not acidified, 4° C.) is “precipitation occurred”. For the same compound, in the data set with PrP^Sc, the “decrease in PrP^RES immunoreactivity, as compared to the non-treated control” value is recorded as ≥ 2.5 log.
